# From PubChem BioAssay (NCI)
#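 48-hour exposure; five concentrations; linearly interpolated endpoints. TGI: concentration producing complete growth inhibition.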 *1 amine or outer side, *2 acyl side, *3 side chain or, on linkers, in order; H or OH if unused. Where a SMILES comes first, the peptide text is derived from it. [ ]: non-standard residue; d: D form. ξ: configuration not given here. X22 = O=C(C(CC(O)CO)O[*:1])[*:2]; Ile(3ξ) = CCC(C)[C@H](N)C(=O)O; NMeV = CN[C@H](C(=O)O)C(C)C; NMeA = CN[C@@H](C)C(=O)O; βAla = NCCC(=O)O
# Columns and labels:
# Assay in all cases: NCI tumour cell line growth inhibition, 48 h
# [1] = test system: LXFL 529 NSCLC
# [2] = test system: DLD-1 colon
# [3] = test system: RXF-631 renal
# [4] = test system: KM20L2 colon
# [5] = test system: SNB-78 CNS
# [6] = test system: M19-MEL melanoma
# [7] = test system: DMS 273 small cell lung
# [8] = test system: DMS 114 small cell lung
# [9] = test system: XF 498 CNS
# [10] = test system: HOP-18 NSCLC
SMILES,TGI [1] [µM],TGI [2] [µM],TGI [3] [µM],TGI [4] [µM],TGI [5] [µM],TGI [6] [µM],TGI [7] [µM],TGI [8] [µM],TGI [9] [µM],TGI [10] [µM]
Cc1nc2ccc(N)cc2[nH]c1=O,> 100,> 100,> 100,> 100,> 100,> 100,> 100,,,
C[N+]1(C)C[C@@H](O)C[C@@H]1C(=O)[O-],> 100,> 100,,> 100,> 100,> 100,> 100,> 100,> 100,> 100
N#CC1CCCCC1NC1(C#N)CCCCC1 (stereo not given),> 100,> 100,,> 100,> 100,,> 100,> 100,> 100,
COC1=CC(=O)C2C(C1=O)C(c1ccc(Cl)cc1)[C@@H]2C (stereo not given in full),32.7,70.5,,> 100,> 100,97.9,> 100,47.7,37.5,25.2
COc1c(C)c(O)c2c(c1C)OC(c1ccccc1)CC2=O (stereo not given),> 100,> 100,,> 100,> 100,> 100,> 100,> 100,,> 100
CCOC(=O)c1c2ccc(/C=C/c3ccccc3)ccc-2c(C(=O)OCC)c1N,> 100,> 100,> 100,> 100,,> 100,> 100,> 100,,> 100
CCSc1nnc(-c2ccccc2)nc1Cc1ccc(OC)cc1,> 100,> 100,,> 100,> 100,> 100,> 100,,> 100,> 100
CCOC(=O)C1=C(c2ccccc2)N(C(C)=O)Cc2ccccc21,> 100,> 100,,53.7,,39.3,29.8,25.9,25,99.4
CC(=O)NC(CCCNC(=O)OCc1ccccc1)C(=O)O (stereo not given),> 100,> 100,> 100,> 100,> 100,> 100,> 100,> 100,> 100,
CSc1nc2nc(C(O)C(O)C(O)CO)cnc2c(=O)[nH]1 (stereo not given),> 100,> 100,,> 100,> 100,> 100,> 100,> 100,> 100,
C=C(C)CC(C)(c1cc2ccccc2n1C)N1CCOCC1 (stereo not given),> 100,> 100,> 100,> 100,,> 100,> 100,,> 100,> 100
CCC(C)[C@@H]1NC(=O)[C@@H]2CCCN2C(=O)C(CC(O)CO)OC(=O)CCNC(=O)[C@H](C)N(C)C(=O)[C@H](C(C)C)N(C)C1=O (stereo not given in full) (cyclo([Ile(3ξ)][NMeV][NMeA][βAla][X22]P)),> 100,> 100,> 100,> 100,> 100,> 100,> 100,,> 100,
CCOC(=O)CC(NCc1ccc(N=Cc2nc3ccc(C(F)(F)F)cc3nc2-c2ccccc2)cc1)C(=O)OCC (stereo not given),> 100,> 100,,> 100,> 100,> 100,> 100,> 100,40.5,> 100
COC(=O)N/N=C(/c1nc2ccc([N+](=O)[O-])cc2[nH]c1=O)C(O)c1ccc(OC)c(OC)c1 (stereo not given),> 100,> 100,> 100,> 100,> 100,> 100,63.7,51.3,> 100,> 100
COC(=O)C(Cc1nc2ccccc2[nH]c1=O)C(=O)C(=O)Nc1ccc(F)cc1 (stereo not given),30,> 100,> 100,> 100,,> 100,> 100,80.7,> 100,> 100
